What was measured:
human EphA2 protein = human EphA2 protein (Homo sapiens, UniProt P29317); experiment: EphA2 Biacore (SPR) binding assay; details: biotinylated human EphA2, 25° C.
Description: Biacore experiments were performed to determine ka (M^−1s^−1), kd (s^−1), KD (nM) values of heterotandem peptides binding to human EphA2 protein.
EphA2 were biotinylated with EZ-Link™ Sulfo-NHS-LC-Biotin for 1 hour in 4 mM sodium acetate, 100 mM NaCl, pH 5.4 with a 3× molar excess of biotin over protein. The degree of labelling was determined using a Fluorescence Biotin Quantification Kit (Thermo) after dialysis of the reaction mixture into PBS. For analysis of peptide binding, a Biacore T200 instrument was used with a XanTec CMD500D chip. Streptavidin was immobilized on the chip using standard amine-coupling chemistry at 25° C. with HBS-N (10 mM HEPES, 0.15 M NaCl, pH 7.4) as the running buffer. Briefly, the carboxymethyl dextran surface was activated with a 7 min injection of a 1:1 ratio of 0.4 M 1-ethyl-3-(3-dimethylaminopropyl) carbodiimide hydrochloride (EDC)/0.1 M N-hydroxy succinimide (NHS) at a flow rate of 10 it/min. For capture of streptavidin, the protein was diluted to 0.2 mg/ml in 10 mM sodium acetate (pH 4.5) and captured by injecting 120 μl onto the activated chip surface. Residual activated groups were blocked with a 7 min injection of 1 M ethanolamine (pH 8.5):HBS-N (1:1). Buffer was changed to PBS/0.05% Tween 20 and biotinylated EphA2 was captured to a level of 500-1500 RU using a dilution of protein to 0.2 μM in buffer. A dilution series of the peptides was prepared in this buffer with a final DMSO concentration of 0.5% with a top peptide concentration was 50 or 100 nM and 6 further 2-fold dilutions. The SPR analysis was run at 25° C. at a flow rate of 90 μl/min with 60 seconds association and 900-1200 seconds dissociation. Data were corrected for DMSO excluded volume effects. All data were double-referenced for blank injections and reference surface using standard processing procedures and data processing and kinetic fitting were performed using Scrubber software, version 2.0c (BioLogic Software). Data were fitted using simple 1:1 binding model allowing for mass transport effects where appropriate.

CD137 [1] = target: T1, CD137 (Homo sapiens, UniProt Q07011); experiment: CD137 reporter assay, co-culture with EphA2 tumour cells; format: cell-based; parameters: host or cells: Jurkat reporter cells; details: tumour target EphA2, co-culture with SC-OV-3, 6 h
T1 sequence (Q07011 24-255): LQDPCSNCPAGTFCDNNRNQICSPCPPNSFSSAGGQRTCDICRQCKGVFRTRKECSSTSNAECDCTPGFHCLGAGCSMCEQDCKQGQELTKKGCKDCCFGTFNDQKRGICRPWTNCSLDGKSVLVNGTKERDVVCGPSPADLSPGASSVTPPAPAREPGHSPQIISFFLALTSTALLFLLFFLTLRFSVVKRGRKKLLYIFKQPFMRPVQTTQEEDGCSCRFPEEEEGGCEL
In short: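 Jurkat CD137 reporter cells co-cultured with tumour cells and serially diluted test articles in RPMI-1640 + 1% FBS, 6 h at 37 °C, 5% CO2. Luminescence read after Bio-Glo; fold change over cells-only background fitted log(agonist) vs response for EC50 (nM) and maximal fold induction.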

CD137 [2] = target: T1, CD137; experiment: CD137 Biacore (SPR) binding assay; parameters: purchased R&D systems; details: biotinylated human CD137, 25° C.
Description: Biacore experiments were performed to determine ka (M^−1s^−1), kd (s^−1), KD (nM) values of heterotandem peptides binding to human CD137 protein. […] The protein was desalted to remove uncoupled biotin using spin columns into PBS.
For analysis of peptide binding, a Biacore T200 or a Biacore 3000 instrument was used with a XanTec CMD500D chip. Streptavidin was immobilized on the chip using standard amine-coupling chemistry at 25° C. with HBS-N (10 mM HEPES, 0.15 M NaCl, pH 7.4) as the running buffer. Briefly, the carboxymethyl dextran surface was activated with a 7 min injection of a 1:1 ratio of 0.4 M 1-ethyl-3-(3-dimethylaminopropyl) carbodiimide hydrochloride (EDC)/0.1 M N-hydroxy succinimide (NHS) at a flow rate of 10 μl/min. For capture of streptavidin, the protein was diluted to 0.2 mg/ml in 10 mM sodium acetate (pH 4.5) and captured by injecting 120 μl of onto the activated chip surface. Residual activated groups were blocked with a 7 min injection of 1 M ethanolamine (pH 8.5) and biotinylated CD137 captured to a level of 270-1500 RU. Buffer was changed to PBS/0.05% Tween 20 and a dilution series of the peptides was prepared in this buffer with a final DMSO concentration of 0.5%. The top peptide concentration was 500 nM with 6 further 2-fold or 3-fold dilutions. The SPR analysis was run at 25° C. at a flow rate of 90 μl/min with 60 seconds association and 900 seconds dissociation. After each cycle a regeneration step (10 μl of 10 mM glycine pH 2) was employed. Data were corrected for DMSO excluded volume effects as needed. All data were double-referenced for blank injections and reference surface using standard processing procedures and data processing and kinetic fitting were performed using Scrubber software, version 2.0c (BioLogic Software). Data were fitted using simple 1:1 binding model allowing for mass transport effects where appropriate.

human EphA2 protein, sequence (P29317 24-976): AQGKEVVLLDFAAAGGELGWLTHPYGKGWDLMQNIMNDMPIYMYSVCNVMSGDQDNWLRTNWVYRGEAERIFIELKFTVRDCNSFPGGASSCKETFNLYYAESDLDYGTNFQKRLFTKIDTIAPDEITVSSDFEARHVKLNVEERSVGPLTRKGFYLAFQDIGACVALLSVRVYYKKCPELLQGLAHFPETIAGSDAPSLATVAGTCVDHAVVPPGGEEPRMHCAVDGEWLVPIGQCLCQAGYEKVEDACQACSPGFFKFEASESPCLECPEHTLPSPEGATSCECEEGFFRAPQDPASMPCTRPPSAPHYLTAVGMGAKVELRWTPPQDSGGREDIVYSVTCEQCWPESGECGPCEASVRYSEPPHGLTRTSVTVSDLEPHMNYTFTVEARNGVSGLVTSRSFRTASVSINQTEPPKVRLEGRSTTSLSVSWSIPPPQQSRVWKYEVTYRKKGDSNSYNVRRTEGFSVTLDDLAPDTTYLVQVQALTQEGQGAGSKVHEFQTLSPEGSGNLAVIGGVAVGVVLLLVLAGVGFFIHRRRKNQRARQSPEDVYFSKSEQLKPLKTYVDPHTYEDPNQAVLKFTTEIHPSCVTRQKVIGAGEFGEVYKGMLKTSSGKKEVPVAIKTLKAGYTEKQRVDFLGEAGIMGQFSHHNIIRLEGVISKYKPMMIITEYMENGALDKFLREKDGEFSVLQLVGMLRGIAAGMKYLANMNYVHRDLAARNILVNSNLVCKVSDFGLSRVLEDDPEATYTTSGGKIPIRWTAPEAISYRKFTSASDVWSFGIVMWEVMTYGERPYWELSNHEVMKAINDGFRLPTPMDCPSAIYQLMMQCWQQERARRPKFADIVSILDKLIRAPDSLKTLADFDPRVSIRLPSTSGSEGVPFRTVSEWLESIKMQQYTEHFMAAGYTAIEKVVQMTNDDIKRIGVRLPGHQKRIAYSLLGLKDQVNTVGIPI

## CCCC[C@@H]1NC(=O)[C@H](Cc2ccc(O)cc2)NC(=O)[C@@H]2CCCN2C(=O)[C@H](CC(=O)O)NC(=O)[C@H](C)NC(=O)[C@H](Cc2ccccc2)NC(=O)[C@@H]2CSCCC(=O)N3CN(CN(C3)C(=O)CCSC[C@@H](C(=O)N[C@@H](CNC(=O)CCc3cn(CCCNC(=O)CN(C)C(=O)CN(C)C(=O)CN(C)C(=O)CN(C)C(=O)CN(C)C(=O)CCOCCOCCOCCOCCOCCOCCOCCOCCOCCOCCOCCOCCOCCOCCOCCNC(=O)NCCC(=O)N(C)CC(=O)N(C)CC(=O)N(C)CC(=O)N(C)CC(=O)N(C)CC(=O)N(C)CC(=O)N(C)CC(=O)N(C)CC(=O)N(C)CC(=O)N(C)CC(=O)N[C@@H](C)C(=O)N[C@@H](CCCCNC(=N)N)C(=O)N[C@@H](CC(=O)O)C(=O)N[C@H]4CSCCC(=O)N5CN6CN(C5)C(=O)CCSC[C@H](NC(=O)[C@H](CC(C)C)NC(=O)[C@@H]5CCCN5C(=O)[C@H](CC(N)=O)NC(=O)[C@H](C(C)C)NC(=O)[C@H](CC(C)C)NC(=O)[C@@H]5C[C@@H](O)CN5C4=O)C(=O)N[C@@H](CC(C)C)C(=O)N[C@@H](Cc4c[nH]cn4)C(=O)N4CCC[C@H]4C(=O)N[C@H](CC(=O)O)C(=O)N[C@@H](Cc4c[nH]c5ccccc45)C(=O)N[C@@H](CCCCNC(=N)N)C(=O)N[C@H](C(N)=O)CSCCC6=O)nn3)C(N)=O)NC1=O)C(=O)CCSC[C@H](NC(=O)[C@H](C)NC(C)=O)C(=O)N[C@@H]([C@@H](C)CC)C(=O)N[C@@H](CCC(=O)O)C(=O)N[C@@H](CCC(=O)O)C(=O)NCC(=O)N[C@@H](CCC(N)=O)C(=O)N[C@@H](Cc1ccc(O)cc1)C(=O)N2 [BCY9655]
Human EphA2 protein
  Kd: 1.33 nM
CD137 [1]
  EC50: 4.1 nM
  Fold Induction over Background: 6 fold
CD137 [2]
  Kd: 199 nM

## CCCC[C@@H]1NC(=O)[C@H](Cc2ccc(O)cc2)NC(=O)[C@@H]2CCCN2C(=O)[C@H](CC(=O)O)NC(=O)[C@H](C)NC(=O)[C@H](Cc2ccccc2)NC(=O)[C@@H]2CSCCC(=O)N3CN(CN(C3)C(=O)CCSC[C@@H](C(=O)N[C@@H](CNC(=O)CCc3cn(CCCNC(=O)CN(C)C(=O)CN(C)C(=O)CN(C)C(=O)CN(C)C(=O)CN(C)C(=O)CN(C)C(=O)CN(C)C(=O)CN(C)C(=O)CN(C)C(=O)CN(C)C(=O)COCCOCCOCCOCCOCCOCCOCCOCCOCCOCCNC(=O)NCCC(=O)N(C)CC(=O)N(C)CC(=O)N(C)CC(=O)N(C)CC(=O)N(C)CC(=O)N(C)CC(=O)N(C)CC(=O)N(C)CC(=O)N(C)CC(=O)N(C)CC(=O)N[C@@H](C)C(=O)N[C@@H](CCCCNC(=N)N)C(=O)N[C@@H](CC(=O)O)C(=O)N[C@H]4CSCCC(=O)N5CN6CN(C5)C(=O)CCSC[C@H](NC(=O)[C@H](CC(C)C)NC(=O)[C@@H]5CCCN5C(=O)[C@H](CC(N)=O)NC(=O)[C@H](C(C)C)NC(=O)[C@H](CC(C)C)NC(=O)[C@@H]5C[C@@H](O)CN5C4=O)C(=O)N[C@@H](CC(C)C)C(=O)N[C@@H](Cc4c[nH]cn4)C(=O)N4CCC[C@H]4C(=O)N[C@H](CC(=O)O)C(=O)N[C@@H](Cc4c[nH]c5ccccc45)C(=O)N[C@@H](CCCCNC(=N)N)C(=O)N[C@H](C(N)=O)CSCCC6=O)nn3)C(N)=O)NC1=O)C(=O)CCSC[C@H](NC(=O)[C@H](C)NC(C)=O)C(=O)N[C@@H]([C@@H](C)CC)C(=O)N[C@@H](CCC(=O)O)C(=O)N[C@@H](CCC(=O)O)C(=O)NCC(=O)N[C@@H](CCC(N)=O)C(=O)N[C@@H](Cc1ccc(O)cc1)C(=O)N2 [BCY9656]
Human EphA2 protein
  Kd: 0.75 nM
CD137 [1]
  EC50: 1.1 nM
  Fold Induction over Background: 3 fold
CD137 [2]
  Kd: 159 nM

## CCCC[C@@H]1NC(=O)[C@H](Cc2ccc(O)cc2)NC(=O)[C@@H]2CCCN2C(=O)[C@H](CC(=O)O)NC(=O)[C@H](C)NC(=O)[C@H](Cc2ccccc2)NC(=O)[C@@H]2CSCCC(=O)N3CN(CN(C3)C(=O)CCSC[C@@H](C(=O)N[C@@H](CNC(=O)CCc3cn(CCCNC(=O)CN(C)C(=O)CN(C)C(=O)CN(C)C(=O)CN(C)C(=O)CN(C)C(=O)CN(C)C(=O)CN(C)C(=O)CN(C)C(=O)CN(C)C(=O)CN(C)C(=O)CN(C)C(=O)CN(C)C(=O)CN(C)C(=O)CN(C)C(=O)CN(C)C(=O)COCCOCCOCCOCCOCCNC(=O)NCCC(=O)N(C)CC(=O)N(C)CC(=O)N(C)CC(=O)N(C)CC(=O)N(C)CC(=O)N(C)CC(=O)N(C)CC(=O)N(C)CC(=O)N(C)CC(=O)N(C)CC(=O)N[C@@H](C)C(=O)N[C@@H](CCCCNC(=N)N)C(=O)N[C@@H](CC(=O)O)C(=O)N[C@H]4CSCCC(=O)N5CN6CN(C5)C(=O)CCSC[C@H](NC(=O)[C@H](CC(C)C)NC(=O)[C@@H]5CCCN5C(=O)[C@H](CC(N)=O)NC(=O)[C@H](C(C)C)NC(=O)[C@H](CC(C)C)NC(=O)[C@@H]5C[C@@H](O)CN5C4=O)C(=O)N[C@@H](CC(C)C)C(=O)N[C@@H](Cc4c[nH]cn4)C(=O)N4CCC[C@H]4C(=O)N[C@H](CC(=O)O)C(=O)N[C@@H](Cc4c[nH]c5ccccc45)C(=O)N[C@@H](CCCCNC(=N)N)C(=O)N[C@H](C(N)=O)CSCCC6=O)nn3)C(N)=O)NC1=O)C(=O)CCSC[C@H](NC(=O)[C@H](C)NC(C)=O)C(=O)N[C@@H]([C@@H](C)CC)C(=O)N[C@@H](CCC(=O)O)C(=O)N[C@@H](CCC(=O)O)C(=O)NCC(=O)N[C@@H](CCC(N)=O)C(=O)N[C@@H](Cc1ccc(O)cc1)C(=O)N2 [BCY9657]
Human EphA2 protein
  Kd: 1.1 nM
CD137 [1]
  EC50: 9 nM
  Fold Induction over Background: 26 fold
CD137 [2]
  Kd: 256 nM

## CCCC[C@@H]1NC(=O)[C@H](Cc2ccc(O)cc2)NC(=O)[C@@H]2CCCN2C(=O)[C@H](CC(=O)O)NC(=O)[C@H](C)NC(=O)[C@H](Cc2ccccc2)NC(=O)[C@@H]2CSCCC(=O)N3CN(CN(C3)C(=O)CCSC[C@@H](C(=O)N[C@@H](CNC(=O)CCc3cn(CCCNC(=O)CN(C)C(=O)CN(C)C(=O)CN(C)C(=O)CN(C)C(=O)CN(C)C(=O)COCCOCCOCCOCCOCCNC(=O)NCCC(=O)N(C)CC(=O)N(C)CC(=O)N(C)CC(=O)N(C)CC(=O)N(C)CC(=O)N(C)CC(=O)N(C)CC(=O)N(C)CC(=O)N(C)CC(=O)N(C)CC(=O)N[C@@H](C)C(=O)N[C@@H](CCCCNC(=N)N)C(=O)N[C@@H](CC(=O)O)C(=O)N[C@H]4CSCCC(=O)N5CN6CN(C5)C(=O)CCSC[C@H](NC(=O)[C@H](CC(C)C)NC(=O)[C@@H]5CCCN5C(=O)[C@H](CC(N)=O)NC(=O)[C@H](C(C)C)NC(=O)[C@H](CC(C)C)NC(=O)[C@@H]5C[C@@H](O)CN5C4=O)C(=O)N[C@@H](CC(C)C)C(=O)N[C@@H](Cc4c[nH]cn4)C(=O)N4CCC[C@H]4C(=O)N[C@H](CC(=O)O)C(=O)N[C@@H](Cc4c[nH]c5ccccc45)C(=O)N[C@@H](CCCCNC(=N)N)C(=O)N[C@H](C(N)=O)CSCCC6=O)nn3)C(N)=O)NC1=O)C(=O)CCSC[C@H](NC(=O)[C@H](C)NC(C)=O)C(=O)N[C@@H]([C@@H](C)CC)C(=O)N[C@@H](CCC(=O)O)C(=O)N[C@@H](CCC(=O)O)C(=O)NCC(=O)N[C@@H](CCC(N)=O)C(=O)N[C@@H](Cc1ccc(O)cc1)C(=O)N2 [BCY9658]
Human EphA2 protein
  Kd: 1.9 nM
CD137 [1]
  EC50: 6.2 nM
  Fold Induction over Background: 11 fold
CD137 [2]
  Kd: 152 nM

From patent US11453703B2, “Heterotandem bicyclic peptide complexes” (BicycleTX Limited, priority 2018, dated 2022)
